“Also recorded” adds a separate entry of the source.
Columns and labels:
human hemoglobin [1] = assay: Inter-subunit cross-linking of hemoglobin by SDS-polyacrylamide gel electrophoresis; format: biochemical; settings: 0.3 mM hemoglobin, pH 7.4, 37° C., four hours
Procedure: Solutions (2 mL) of 4,4'stilbene dicarboxylic acid bis(methyl phosphate) at concentrations of 0.3 mM, 3.0 mM, 30 mM, and 300 mM were prepared in 0.100M tris-HCL buffer pH 7.4. A control solution containing only the buffer was prepared. To each of these freshly prepared solutions, 40 mg of human hemoglobin (Sigma Chemical Company) was added so that the resulting solution was 0.3 mM in hemoglobin. The reaction mixtures were than stirred vigorously and incubated at 37° C. After four hours the solutions were dialyzed against 0.100M sodium phosphate buffer, pH 7.0, for 20 hours at 4° C. to remove the unreacted acyl phosphates. The samples were then lyophilized and analyzed by SDS-polyacrylamide gel electrophoresis to assess the extent of intersubunit cross-linking (Weber, K; Osborn, M.; J. Biol. Chem. 1969, 244, 4406). Prior to electrophoresis, the hemoglobin samples, cross-linked bovine hemoglobin standard (Sigma Dalton Mark VII-L doubly crystallized, dialyzed, lyophilized), and molecular weight standards were denatured by boiling for 15 min. in 0.11M sodium phosphate buffer, pH 7.0, which contained 1% sodium dodecyl sulfate, 1% 2-mercaptoethanol, 36% urea, and 0.015% bromphenol blue. The final protein concentrations were 2 mg/mL and 10 to 20 μL aliquots were loaded on the gel. The process was conducted using a Bio-Rad Mini-Protean II dual slab cell apparatus. The extent of cross-linking of the hemoglobin could be estimated by visual comparison of the resolved electrophoretic bands after fixation followed by staining with Coomassie Brilliant Blue R.
The above procedure was repeated with solutions of fumaryl bis(methyl phosphate) at concentrations of 0.3 mM, 3.0 mM and 30 mM; 3,3'stilbene dicarboxylic acid bis(methyl phosphate) at a concentration of 30 mM and methyl acetyl phosphate at a concentration of 0.6M.

[2] = Solution stability (hydrolysis followed by 31P NMR) of bis(methyl acyl phosphates) in tris-HCl buffer; format: physicochemical; settings: 0.100M tris-HCl buffer, pH 7.4, 37° C.; for half-life: 0.1 m tris-hcl buffer, 31P NMR
Procedure: The solution stability of the bis(methyl acyl phosphates) was examined. The hydrolysis of fumaryl bis(sodium methyl phosphate), stilbene 3,3'dicarboxylic acid bis(sodium methyl phosphate) and stilbene 4,4'dicarboxylic acid bis(sodium methyl phosphate) in 0.100M tris-HCL buffer, pH 7.4, 37° C., were followed by integrating signals for the reactant and the phosphorus-containing product, methyl phosphate, in the ^31 P NMR spectrum. Production of methyl phosphate was observed as an indication of hydrolysis or of acylation of the buffer. […] The half life of the 3,3'stilbene derivative, was 100 hours. […] This is in agreement with earlier reports of the reactivity of acyl phosphate esters (Disabato, G.; Jencks, W. P., J. Am. Chem. Soc. 1961, 83, 4393, 4400).

human hemoglobin [3] = assay: Cross-linking site of the reaction with hemoglobin; format: biochemical
Excerpt: Structural characterization of the major and some minor modified hemoglobins that result form reacting deoxyHb and COHb with FMP were made by isolating single hemoglobin components wherever possible. The initial separation was made on a preparative size Synchropak AX300 anion exchange column. Further purification was obtained by rechromatography of anion exchange zones containing mixtures of hemoglobins on a preparative size Synchropak CM300 cation exchange column. Zones from cation exchange rechromatography were then subjected to globin chain separation using Vydak C-4 large pore reverse phase columns. In some cases, this was sufficient for identification of the unmodified globin chains. In most cases the globin chain was isolated, treated by oxidations or aminoethylation to stabilize the zysteinyl residues, hydrolyzed with trypsin and glu-C proteonase and the resultant peptides were separated and analyzed for amino acid composition. Table II lists the components isolated and the structural modifications identified for the FMP treated hemoglobin.
The number, chromatographic elution positions, and amounts of products of hemoglobin reacted with FMP varies with the ligand state of the hemoglobin and with the presence or absence of 2,3-DPG (2,3, diphosphoglycerate). FIG. 1 is an artion exchange HPLC chromatogram of the reaction mixture after treatment of deoxyhemoglobin with FMP. […]

[4] = target: carbonmonoxyhemoglobin (COHb) (Homo sapiens, UniProt P68871+P69905); assay: Reaction of FMP with carbonmonoxyhemoglobin, conversion by anion exchange chromatography; format: biochemical
Sequence of carbonmonoxyhemoglobin (COHb) (P69905 2-142 limits assumed): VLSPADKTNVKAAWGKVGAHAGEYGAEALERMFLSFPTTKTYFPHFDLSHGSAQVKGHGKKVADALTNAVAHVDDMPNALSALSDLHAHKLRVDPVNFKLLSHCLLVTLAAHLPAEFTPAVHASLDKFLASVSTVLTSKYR
Sequence of carbonmonoxyhemoglobin (COHb) (P68871 2-147 limits assumed): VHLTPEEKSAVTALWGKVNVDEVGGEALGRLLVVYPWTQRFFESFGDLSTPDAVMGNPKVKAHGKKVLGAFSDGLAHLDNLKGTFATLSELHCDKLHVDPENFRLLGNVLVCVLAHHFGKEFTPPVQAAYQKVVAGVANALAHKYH
Procedure: The effect of pH, type of buffer, and ligand state of the cross-linked hemoglobin was examined for the reaction of fumaryl bis(methyl phosphate) (FMP) with hemoglobin.
ethanesulphonic acid]at pH 7.5, 35°, for 2 hours. Over the range of pH from 6.8 to 7.5, the greatest reaction between COHb and FMP was obtained at the pH of 7.2 in bisTris. The reaction at pH 7.2, . […] A second peak of reacted material observed by anion exchange chromatography increased over 3 hours from 14% at 10 minutes to about 30% by 3 hours.

## COP(=O)(O)OC(=O)c1cccc(/C=C/c2cccc(C(=O)OP(=O)(O)OC)c2)c1 [Stilbene 3,3'-dicarboxylic acid bis(sodiummethyl phosphate)]
Human hemoglobin [1]
  species produced by reaction with hemoglobin (SDS gel electrophoresis): dimeric and tetrameric species
[2]
  half-life: 100 h

## COP(=O)(O)OC(=O)c1ccc(/C=C/c2ccc(C(=O)OP(=O)(O)OC)cc2)cc1 [Stilbene 4,4'-dicarboxylic acid bis(sodiummethyl phosphate)]
Human hemoglobin [1]
  species produced by reaction with hemoglobin (SDS gel electrophoresis): dimeric and tetrameric species
[2]; followed for nine hours
  change observed in the 31P NMR spectrum: no change observed in the spectrum

## COP(=O)(O)OC(=O)/C=C/C(=O)OP(=O)(O)OC [fumaryl bis(methyl phosphate), Fumaryl bis(sodium methyl phosphate)]
Human hemoglobin [3]; absence of 2,3-diphosphoglycerate
  cross-links formed in hemoglobin: cross-linked between β subunits (val-1 to lys-82) and between the same residues in a single β subunit as well as a cross-link between α subunits between lys-99 in each subunit; also recorded: cross-linked between β subunits (val-1 to lys-82) and between the same residues in a single β subunit as well as crosslinked between α subunits between lys-99 in each subunit
Human hemoglobin [3]; human hemoglobin
  cross-linking site of reaction: the highly cationic site which binds 2,3-diphosphoglycerate
[4]; 1 mM COHb, 2 mM FMP, pH 7.2, 35°, 2 hours
  conversion of the hemoglobin to fumaryl derivatives: about 75%
[4]; 1 mM COHb, 2 mM FMP, pH 7.2, 35°, at 10 minutes
  second peak of reacted material: 14%
[4]; 1 mM COHb, 2 mM FMP, pH 7.2, 35°, by 10 minutes
  major modified component, percent of total hemoglobin: approximately 35%
[4]; 1 mM COHb, 2 mM FMP, pH 7.2, 35°, by 3 hours
  second peak of reacted material: about 30%
[4]; COHb, bisTris compared to HEPES, pH 7.5, 35°, 2 hours
  effect of buffer on amounts or varieties of reaction products: No significant differences
[4]; pH range 6.8 to 7.5, bisTris
  pH of greatest reaction between COHb and FMP: 7.2
Human hemoglobin [1]
  species produced by reaction with hemoglobin (SDS gel electrophoresis): dimeric and tetrameric species
[2]
  half-life: 36 h

## O=C(O)c1cccc(C=Cc2cccc(C(=O)O)c2)c1 [stilbene 3,3'-dicarboxylic acid, Stilbene 3,3'-dicarboxylic acid, reference compound]
Human hemoglobin [1]
  species produced by reaction with hemoglobin (SDS gel electrophoresis): monomeric
